How the values were obtained:
NOS2 = test: Pulmonary cGMP levels after endotoxin challenge; assay type: in vivo, mouse; details: wild-type mice 7 hours after endotoxin challenge; L-NIL 5 mg/kg intraperitoneally; data not shown
[1] = tested on: hypoxic pulmonary vasoconstriction (HPV) in mice; test: Redistribution of pulmonary blood flow (QLPA/QPA) after left mainstem bronchus occlusion (LMBO), murine HPV model; assay type: in vivo, mouse
Procedure: Group 3: endotoxin-treated+L-NIL. SV129/B6F1 wild-type mice (n=5) were injected intraperitoneally with 10 mg/kg E. coli 011B4 endotoxin dissolved in 0.2 mL saline. Three hours after the endotoxin challenge, mice were treated with L-NIL 5 mg/kg intraperitoneally. Studies were performed 22 hours after the endotoxin challenge. In additional SV129/B6F1 mice with (n=5) and without (n=4) a prior challenge of endotoxin (22 hours earlier), the acute response to an intravenous bolus of 5 mg/kg L-NIL administered during LMBO, was studied.
Group 4: prolonged exposure to 4 or 40 ppm NO. Saline-treated SV129 wild-type mice (n=5) and NOS2-deficient mice (n=5) breathed 40 ppm NO in air for 22 hours and were studied 1 hour after discontinuation of NO inhalation. SV129 wild-type mice (n=5) and NOS2-deficient mice (n=5) breathed 40 ppm NO in air for 22 hours after challenge with 10 mg/kg endotoxin intraperitoneally and were studied 1 hour after discontinuation of NO inhalation. Additional NOS2-deficient mice (n=4) breathed 4 ppm of NO in air for 22 hours after challenge with 10 mg/kg endotoxin intraperitoneally and were studied 1 hour after discontinuation of NO inhalation.
Experimental preparation. Mice were anesthetized by intraperitoneal injection of ketamine (0.1 mg/g body weight [bw]). Tracheostomy and arterial catheterization were performed as described previously (Steudel et al., 1997, Circ. Res. 81:34-41). A custom-made endotracheal tube (22G Angiocath; Becton Dickinson Healthcare Systems, Sandy, Utah, USA), combined with a 2 French Fogarty arterial embolization catheter (Baxter Healthcare Corp., Irvine, Calif., USA) was inserted into the trachea, with the balloon tip of the Fogarty catheter initially remaining in the trachea. Volume-controlled ventilation was initiated at a respiratory rate of 110-120 breaths per minute, at FiO2 1.0, a peak inspiratory pressure of 13 cm H2O, and a positive end-expiratory pressure level of 2-3 cm H2O. A right parasternal thoracotomy was performed, and a small-vessel ultrasonic flow probe (1RB; Transonic Instruments, Ithaca, N.Y.) was placed around the right pulmonary artery and fixed in position using a micromanipulator (X-tra Hand; TechniTool, Plymouth, Pa.). A 4-0 silk suture was positioned around the left main pulmonary artery to allow transient vascular occlusion. A pulmonary artery catheter (PE10) was inserted into the main pulmonary artery by direct puncture. In other experiments, a lower thoracic aortic flow probe was placed as reported previously (Steudel et al., supra).
Blood flow and pressure measurements. Mean systemic arterial pressure (PSA), mean pulmonary artery pressure (PPA), and in some studies PLA, were continuously monitored using biomedical amplifiers (Hewlett Packard 8805C, Palo Alto, Calif.; Siemens Sirecust 960, Danvers, Mass.). Mean lower thoracic aortic flow (QLTAF) and right pulmonary artery flow (QRPA) were measured with small vessel flow probes connected to a flowmeter (T106; Transonic Instruments). In some experiments, left ventricular end-diastolic pressure was measured with a 1.4 Fr. Millar catheter. The catheter was advanced through the right carotid artery into the left ventricle. […] All monitoring equipment was calibrated before each experiment.
Differential measurement of left and right pulmonary artery flow. To assess the contribution of QRPA and left pulmonary artery flow (QLPA) to total pulmonary artery flow (QPA), transient occlusion (90 seconds) of the left pulmonary artery (QLPA) was performed. QRPA during acute left pulmonary artery occlusion was considered to be QPA (i.e., cardiac output) and correlated closely (r2=0.88; y=0.95x+0.38; n=9) with QLTAF. QLPA was calculated as the difference between QRPA during left pulmonary artery occlusion (QPA) and QRPA with a patent left pulmonary artery (QLPA=QPA−QRPA). Absolute values of respective flows were recorded, and the fractional distribution of flow to the right and left lungs (QRPA/QPA and QLPA/QPA) was calculated. […]

[2] = saline-treated wild-type mice, L-NIL 5 mg/kg intravenously after LMBO

CC(=N)NCCCC[C@H](N)C(=O)O [L-NIL]
increase in pulmonary cGMP levels (NOS2): sufficient to prevent the increase in pulmonary cGMP levels
reduction of QLPA/QPA after LMBO ([1]; endotoxin-challenged (10 mg/kg i.p.) wild-type mice treated with L-NIL 5 mg/kg intraperitoneally 3 hours later, studied 22 hours after endotoxin): 53±10%
all other hemodynamic parameters after L-NIL injection [1, 2]: did not change
reduction of QLPA/QPA during LMBO after acute L-NIL [1, 2]: 56±3%
reduction of QLPA/QPA during LMBO after acute L-NIL ([1]; wild-type mice treated with endotoxin 22 hours earlier, L-NIL 5 mg/kg intravenously after LMBO): 24±18%

From patent publication US6935334B2, “Enhancing therapeutic effectiveness of nitric oxide inhalation” (The General Hospital Corporation, priority 2000, dated 2005)
